Data from patent US20210261569A1, “FUSED HETEROCYCLIC DERIVATIVES HAVING SELECTIVE BACE1 INHIBITORY ACTIVITY” (Shionogi & Co., Ltd., priority 2018, published 2021).

Legend:
[1] = tested on: Abeta 1-42 in cerebrospinal fluid (CSF); assay: Pharmacology in the beagle dog: beta-amyloid profile in cerebrospinal fluid; type: in vivo; conditions: single dose 0.63 mg/kg
Procedure: Test compounds were tested to evaluate the effect on the beta-amyloid profile in cerebrospinal fluid (CSF) of dogs after a single dose, in combination with pharmacokinetic (PK) follow up and limited safety evaluation.
In the case of compounds shown below, two or 4 beagle dogs (1 or 2 male, 1 or 2 female) were dosed with vehicle (1 mL/kg of an aqueous solution of 20% cyclodextrin) and 4 beagle dogs (2 males and 2 females) per dose group were dosed with test compound at the doses indicated in the following Table in an aqueous 20% cyclodextrin solution with a concentration in mg/mL identical to the dose given in mg/kg) on an empty stomach.
CSF was taken in conscious animals directly from the lateral ventricle via a cannula which was screwed in the skull and covered with subcutaneous tissue and skin, before and at 4, 8, 25 and 49 hours after dosing. Eight hours after dosing the animals got access to their regular meal for 30 minutes. Blood was taken for PK follow up (0.5, 1, 2, 4, 8, 25 and 49 hours) and serum samples for biochemistry were taken before and at 8 and 25 h after dosing. The CSF samples were used for measurement of Abeta 1-37, Abeta 1-38, Abeta 1-40 and Abeta 1-42.

Metabolic stability test = type: in vitro ADME; conditions: human liver microsomes 0.5 mg protein/mL, NADPH, 37° C.
Procedure: Using a commercially available pooled human liver microsomes, a compound of the present invention was reacted for a constant time, a remaining rate was calculated by comparing a reacted sample and an unreacted sample, thereby, a degree of metabolism in liver was assessed.
A reaction was performed (oxidative reaction) at 37° C. for 0 minute or 30 minutes in the presence of 1 mmol/L NADPH in 0.2 mL of a buffer (50 mmol/L Tris-HCl pH 7.4, 150 mmol/L potassium chloride, 10 mmol/L magnesium chloride) containing 0.5 mg protein/mL of human liver microsomes. After the reaction, 50 μL of the reaction solution was added to 100 μL of a methanol/acetonitrile=1/1 (v/v), mixed and centrifuged at 3000 rpm for 15 minutes. The compound of the present invention in the supernatant was quantified by LC/MS/MS or solid phase extraction (SPE)/MS, and a remaining amount of the compound of the present invention after the reaction was calculated, letting a compound amount at 0 minute reaction time to be 100%.

[2] = target: T1, human ether-a-go-go related gene (hERG) channel (Homo sapiens, UniProt Q12809); assay: hERG test (whole cell patch clamp, QPatch); type: cell-based; conditions: CHO cells expressing hERG, tail peak current
T1 construct: expressed in transfected cells; host or cells: CHO cells
From the text: For the purpose of assessing risk of an electrocardiogram QT interval prolongation, effects on delayed rectifier K+ current (IKr), which plays an important role in the ventricular repolarization process of the compound of the present invention, was studied using CHO cells expressing human ether-a-go-go related gene (hERG) channel.
A cell was retained at a membrane potential of −80 mV by whole cell patch clamp method using an automated patch clamp system (QPatch; Sophion Bioscience A/S). After application of leak potential at −50 mV, IKr induced by depolarization pulse stimulation at +20 mV for 2 seconds and, further, repolarization pulse stimulation at −50 mV for 2 seconds was recorded.
After the generated current was stabilized, extracellular solution (NaCl: 145 mmol/L, KCl: 4 mmol/L, CaCl2:2 mmol/L MgCl2:1 mmol/L, 1 mmol/L, HEPES (4-(2-hydroxyethyl)-1-piperazineethanesulfonic acid: 10 mmol/L, glucose:10 mmol/L pH=7.4) in which the compound of the present invention have been dissolved at an objective concentration was applied to the cell under the room temperature condition for 10 minutes. From the recording IKr, an absolute value of the tail peak current was measured based on the current value at the resting membrane potential using an analysis software (QPatch assay software; Sophion Bioscience A/S). Further, the % inhibition relative to the tail peak current before application of the compound of the present invention was calculated, and compared with the vehicle-applied group (0.1% dimethyl sulfoxide solution) to assess influence of the compound of the present invention on IKr.

T1 sequence (Q12809 whole entry): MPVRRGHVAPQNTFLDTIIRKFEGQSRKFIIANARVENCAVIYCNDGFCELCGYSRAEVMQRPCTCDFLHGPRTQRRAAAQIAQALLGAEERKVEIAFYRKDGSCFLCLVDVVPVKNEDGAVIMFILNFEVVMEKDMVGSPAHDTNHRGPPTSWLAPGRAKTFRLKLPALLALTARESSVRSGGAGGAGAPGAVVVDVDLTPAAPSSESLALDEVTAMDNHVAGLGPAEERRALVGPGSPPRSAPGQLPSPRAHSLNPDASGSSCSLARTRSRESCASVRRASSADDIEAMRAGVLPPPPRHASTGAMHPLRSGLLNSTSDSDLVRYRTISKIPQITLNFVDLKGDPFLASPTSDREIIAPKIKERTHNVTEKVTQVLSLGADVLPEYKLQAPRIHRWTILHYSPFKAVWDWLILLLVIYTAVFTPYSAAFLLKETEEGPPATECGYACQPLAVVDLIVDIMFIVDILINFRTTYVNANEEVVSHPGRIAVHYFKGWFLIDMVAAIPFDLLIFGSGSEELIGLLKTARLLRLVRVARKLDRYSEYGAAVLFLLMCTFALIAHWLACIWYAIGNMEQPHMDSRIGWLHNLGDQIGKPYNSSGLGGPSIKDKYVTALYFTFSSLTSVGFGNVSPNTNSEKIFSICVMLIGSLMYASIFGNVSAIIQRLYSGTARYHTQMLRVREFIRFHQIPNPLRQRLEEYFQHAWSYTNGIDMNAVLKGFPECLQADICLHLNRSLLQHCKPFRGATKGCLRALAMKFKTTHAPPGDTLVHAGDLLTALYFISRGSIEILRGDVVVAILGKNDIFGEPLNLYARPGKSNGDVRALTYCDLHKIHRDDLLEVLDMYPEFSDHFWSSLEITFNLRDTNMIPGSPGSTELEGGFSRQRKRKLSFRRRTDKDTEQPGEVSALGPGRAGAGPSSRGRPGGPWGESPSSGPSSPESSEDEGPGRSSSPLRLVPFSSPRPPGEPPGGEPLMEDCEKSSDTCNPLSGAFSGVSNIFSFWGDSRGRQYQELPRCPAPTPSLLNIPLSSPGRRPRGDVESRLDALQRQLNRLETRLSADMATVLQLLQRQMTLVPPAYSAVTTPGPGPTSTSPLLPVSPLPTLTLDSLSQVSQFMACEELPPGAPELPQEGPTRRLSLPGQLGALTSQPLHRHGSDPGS

Compound	% change in Abeta 1-42 from own baseline ([1]; 8 h)	% change in Abeta 1-42 from own baseline ([1]; 24 h or 25 h)	Remaining rate (%) at 30 min (Metabolic stability test)	hERG inhibition (%) at 3 μM [2]
C[C@@H]1OC[C@H]2[C@@H]1OC(N)=N[C@]2(CF)c1cc(NC(=O)c2cnc(OCF)cn2)ccc1F [Compound I-082]	−58%	−41%	92%	6.7%
NC1=N[C@](CF)(c2cc(NC(=O)c3cnc(OCF)cn3)ccc2F)[C@H]2[C@H](CC(F)F)OC[C@H]2O1 [Compound I-116]			92%	33.9%
